In brackets after ≈: the same amount, converted by molar mass. Where a SMILES comes first, the peptide text is derived from it. Bridges are numbered along the chain shown (N, C = ends). Roman numbers before positions name the chains, in order. [ ]: non-standard residue; d: D form. aThr = C[C@H](O)[C@H](N)C(=O)O; dDab = NCC[C@@H](N)C(=O)O; Dab = NCC[C@H](N)C(=O)O; Abu = CC[C@H](N)C(=O)O; Dap = NC[C@H](N)C(=O)O
Experiments:
male ICR mice = test: Tolerability in a mouse model (Maximum Tolerated Dose assay); type: in vivo; conditions: 2 × 40 mg/kg s.c. at a 12-hr interval, groups of 3
Procedure, shortened: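 Peptides in 0.9% NaCl (pH 6.5-7.6) given s.c. at 30 or 40 mg/kg, twice 12 h apart, to groups of 3 male ICR mice (23±3 g). Acute toxic signs (mortality, convulsions, tremors, sedation) and autonomic effects (diarrhea, salivation, piloerection) observed for 30 min after each dose.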

[1] = tested on: Acinetobacter baumannii DSM 30008; type: cell-based; conditions: DSM 30008
Procedure, shortened: (§1)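 CLSI broth microdilution in cation-adjusted Mueller-Hinton II broth with 0.002% polysorbate 80 (final), inoculum appr. 10^6 CFU/mL, peptides in serial two-fold dilutions. MIC (μg/mL) is the lowest concentration without visible growth after 18-20 h at 35° C.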

[2] = tested on: Klebsiella pneumoniae SSI #3010; type: cell-based; conditions: SSI #3010
Procedure, shortened: as §1

[3] = tested on: Pseudomonas aeruginosa ATCC 27853; type: cell-based; conditions: ATCC 27853
Procedure, shortened: as §1

[4] = tested on: Enterobacter cloacae 848840; type: cell-based; conditions: 848840
Procedure, shortened: as §1

[5] = tested on: Acinetobacter baumannii 872842; type: cell-based; conditions: 872842
Procedure, shortened: as §1

Escherichia coli 926415 = type: cell-based; conditions: 926415
Procedure, shortened: as §1

[6] = tested on: Klebsiella pneumoniae 968733; type: cell-based; conditions: 968733
Procedure, shortened: as §1

[7] = tested on: Escherichia coli ATCC 25922; type: cell-based; conditions: ATCC 25922
Procedure, shortened: as §1

[8] = tested on: human red blood cells (hRBC); test: Hemolysis; type: cell-based; conditions: red cells of human, 1 h, 200
Procedure, shortened: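 Washed fresh human RBC (20% v/v) incubated with peptide at 200 μg/mL for 1 h at 37° C with shaking. Supernatant OD540 measured after dilution, blank corrected; percent hemolysis = OD540 peptide / OD540 of 2% Triton X-100 lysis × 100, PBS with 10% water as 0%.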

Row | SMILES | Mortality and dose (male ICR mice) | Acinetobacter baumannii DSM 30008 MIC [1] | Klebsiella pneumoniae SSI #3010 MIC [2] | Pseudomonas aeruginosa ATCC 27853 MIC [3] | MIC [4] | MIC [5] | MIC (Escherichia coli 926415) | MIC [6] | Escherichia coli ATCC 25922 MIC [7] | Hemolysis at 200 μg/mL [8]
1 | CC[C@@H]1NC(=O)[C@@H](CC(C)C)NC(=O)[C@H](CCN)NC(=O)[C@@H](NC(=O)[C@H](CN)NC(=O)[C@@H](NC(=O)[C@H](CCN)NC(=O)CC[C@@H]2NC(=O)[C@H](CCN)NC(=O)[C@H](Cc3ccc(O)cc3)NC(=O)[C@@H](NC(=O)[C@@H](NC(C)=O)C(C)C)CSSC[C@@H](C(=O)N[C@@H](CO)C(N)=O)NC(=O)[C@H]([C@@H](C)CC)NC(=O)[C@H](CO)NC(=O)[C@H](Cc3c[nH]c4ccccc34)NC(=O)[C@H](CCN)NC(=O)CNC2=O)[C@@H](C)O)CCNC(=O)[C@H]([C@@H](C)O)NC(=O)[C@H](CCN)NC(=O)[C@H](CCN)NC1=O [Ex. 299] (I: Ac-VCY[Dab]EG[Dab]WSICS-NH2 / II: [Dab]T[Dap][Dab][Dab][dL][Abu][Dab][Dab]T; disulfide I:2-I:11; amide I:5-II:N; lactam II:4-II:C) | 0/3 died at 2 × 40 mg/kg | 0.0625 µg/mL | 0.0625 µg/mL | 0.25 µg/mL | 0.125 µg/mL (≈ 0.0531 µM) | 0.125 µg/mL (≈ 0.0531 µM) | 0.25 µg/mL (≈ 0.106 µM) | 0.5 µg/mL (≈ 0.212 µM) | 0.0625 µg/mL | <1%
2 | CC[C@@H]1NC(=O)[C@@H](CC(C)C)NC(=O)[C@H](CCN)NC(=O)[C@@H](NC(=O)[C@H](CN)NC(=O)[C@@H](NC(=O)[C@H](CCN)NC(=O)CC[C@@H]2NC(=O)[C@H](CCN)NC(=O)[C@H](Cc3ccc(O)cc3)NC(=O)[C@@H](NC(=O)[C@@H](NC(C)=O)C(C)C)CSSC[C@@H](C(=O)N[C@@H](CO)C(N)=O)NC(=O)[C@H](C(C)C)NC(=O)[C@H](CCN)NC(=O)[C@H](Cc3c[nH]c4ccccc34)NC(=O)[C@H](CO)NC(=O)[C@@H](CCN)NC2=O)[C@@H](C)O)CCNC(=O)[C@H]([C@@H](C)O)NC(=O)[C@H](CCN)NC(=O)[C@H](CCN)NC1=O [Ex. 300] (I: Ac-VCY[Dab]E[dDab]SW[Dab]VCS-NH2 / II: [Dab]T[Dap][Dab][Dab][dL][Abu][Dab][Dab]T; disulfide I:2-I:11; amide I:5-II:N; lactam II:4-II:C) | 0/3 died at 2 × 40 mg/kg | 0.125 µg/mL | 0.0625 µg/mL | 0.125 µg/mL | 0.125 µg/mL (≈ 0.0524 µM) | 1 µg/mL (≈ 0.419 µM) | 0.25 µg/mL (≈ 0.105 µM) | 2 µg/mL (≈ 0.839 µM) | 0.125 µg/mL | <1%
3 | CC(=O)N[C@H](C(=O)N[C@H]1CSSC[C@@H](C(=O)N[C@@H](CO)C(N)=O)NC(=O)[C@H](C(C)C)NC(=O)[C@H]([C@H](C)O)NC(=O)[C@H](Cc2c[nH]c3ccccc23)NC(=O)[C@H](CO)NC(=O)[C@@H](CCN)NC(=O)[C@H](CCC(=O)N[C@@H](CCN)C(=O)N[C@H](C(=O)N[C@@H](CN)C(=O)N[C@H]2CCNC(=O)[C@H]([C@@H](C)O)NC(=O)[C@H](CCN)NC(=O)[C@H](CCN)NC(=O)[C@H](CC(C)C)NC(=O)[C@@H](CC(C)C)NC(=O)[C@H](CCN)NC2=O)[C@@H](C)O)NC(=O)[C@H](CCN)NC(=O)[C@H](Cc2ccc(O)cc2)NC1=O)C(C)C [Ex. 306] (I: Ac-VCY[Dab]E[dDab]SW[aThr]VCS-NH2 / II: [Dab]T[Dap][Dab][Dab][dL]L[Dab][Dab]T; disulfide I:2-I:11; amide I:5-II:N; lactam II:4-II:C) | 0/3 died at 2 × 40 mg/kg | 0.0625 µg/mL | 0.0625 µg/mL | 0.0625 µg/mL | 0.0625 µg/mL (≈ 0.0259 µM) | 0.0625 µg/mL (≈ 0.0259 µM) | 0.0625 µg/mL (≈ 0.0259 µM) | 0.125 µg/mL (≈ 0.0518 µM) | 0.03125 µg/mL | <1%
4 | CC(=O)N[C@H](C(=O)N[C@H]1CSSC[C@@H](C(=O)N[C@@H](CO)C(N)=O)NC(=O)[C@H](C(C)C)NC(=O)[C@H](CO)NC(=O)[C@H](Cc2c[nH]c3ccccc23)NC(=O)[C@H](CO)NC(=O)[C@@H](CCN)NC(=O)[C@H](CCC(=O)N[C@H](CCN)C(=O)N[C@H](C(=O)N[C@@H](CN)C(=O)N[C@H]2CCNC(=O)[C@H]([C@@H](C)O)NC(=O)[C@H](CCN)NC(=O)[C@H](CCN)NC(=O)[C@H](CC(C)C)NC(=O)[C@@H](CC(C)C)NC(=O)[C@H](CCN)NC2=O)[C@@H](C)O)NC(=O)[C@H](CCN)NC(=O)[C@H](Cc2ccc(O)cc2)NC1=O)C(C)C [Ex. 310] (I: Ac-VCY[Dab]E[dDab]SWSVCS-NH2 / II: [dDab]T[Dap][Dab][Dab][dL]L[Dab][Dab]T; disulfide I:2-I:11; amide I:5-II:N; lactam II:4-II:C) | 0/3 died at 2 × 40 mg/kg | 0.0625 µg/mL | 0.0625 µg/mL | 0.125 µg/mL | 0.0625 µg/mL (≈ 0.0261 µM) | 0.0625 µg/mL (≈ 0.0261 µM) | 0.0625 µg/mL (≈ 0.0261 µM) | 0.0625 µg/mL (≈ 0.0261 µM) | 0.03125 µg/mL | <1%

From US11629171B2, “Beta-hairpin peptidomimetics” (POLYPHOR AG, priority 2017, dated 2023)
